Experimental data taken from publication PMC3849131, “^18 F-click labeling and preclinical evaluation of a new ^18 F-folate for PET imaging” (EJNMMI Research, 2013).
Read-outs that look alike come from different tables or passages of the source.

Experiments:
[1] = Relative lipophilicity (capacity factor k’) by reversed-phase HPLC; type: physicochemical; details: methanol-phosphoric acid buffer eluent, pH 2
Experimental: The relative lipophilicity of 6 was determined as capacity factor k’ (k’ = (tretention - tsolvent) / tsolvent) by reversed-phase HPLC using a methanol-phosphoric acid buffer eluent system at pH 2. […] This method has already been described elsewhere. The capacity factor k’ (k’ = (tretention - tsolvent) / tsolvent) was determined using reversed-phase HPLC and enables different (radio)folates to be compared based on their polarity. The values determined can be used to give hint to the in vivo behavior in terms of the degree of hepatobiliary excretion by comparison with literature examples.

[2] = biological target: T1, folate receptor (Homo sapiens, UniProt P15328); experiment: Displacement assay with [^3H]folic acid on FR-positive human KB cells; type: binding
T1 construct: using [^3H]folic acid and human KB cells in cell suspension; endogenous in cells; host or cells: human KB cells
Experimental: FR-positive human KB cells were kept under folate-deficient conditions to adjust the folate concentration levels to that of the human serum.
Figure 1 Displacement assay. […] Experiments were conducted in triplicate (n = 3).

[3] = reversed-phase HPLC; cited from earlier work
[4] = test system: KB tumor-bearing mice; details: 45 min p.i., n = 4, cited from earlier work

T1 sequence (P15328 25-257): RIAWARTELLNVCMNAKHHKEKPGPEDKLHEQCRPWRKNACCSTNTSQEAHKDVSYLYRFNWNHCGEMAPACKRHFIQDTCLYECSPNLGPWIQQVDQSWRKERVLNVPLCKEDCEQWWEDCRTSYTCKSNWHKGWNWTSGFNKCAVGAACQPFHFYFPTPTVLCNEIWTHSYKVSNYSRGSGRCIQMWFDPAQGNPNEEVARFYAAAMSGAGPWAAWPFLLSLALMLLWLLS

Compound	capacity factor k’ [1]	IC50 [2]	Ki [2]	capacity factor k’ [3]	Ratio of tumor to Kidney [4]	Ratio of tumor to Liver [4]	%ID/g Blood ([4]; Blood)	%ID/g Bone ([4]; Bone)	%ID/g Feces ([4]; Feces)	%ID/g Gall bladder ([4]; Gall bladder)	%ID/g Heart ([4]; Heart)	%ID/g Intestines (empty) ([4]; Intestines (empty))	%ID/g Tumor ([4]; KB tumor)	%ID/g Kidneys ([4]; Kidneys)	%ID/g Liver ([4]; Liver)	%ID/g Lung ([4]; Lung)	%ID/g Spleen ([4]; Spleen)	%ID/g Stomach (empty) ([4]; Stomach (empty))
Nc1nc2ncc(CNc3ccc(C(=O)N[C@@H](CCC(=O)NCCOCCOCCOCCn4cc(COCCOCCOCCF)nn4)C(=O)O)cc3)nc2c(=O)[nH]1 [Compound 6]	1.12	3.1 nM	1.6 nM															
Nc1nc2ncc(CNc3ccc(C(=O)NC(CCC(=O)NCCCCn4cc(CCCC[18F])nn4)C(=O)O)cc3)nc2c(=O)[nH]1 (stereo not drawn) [^18 F-click folate]				2.28	0.19 ± 1.38	1.18 ± 0.69	0.13 ± 0.01 %ID/g	0.13 ± 0.01 %ID/g	56.00 ± 27.64 %ID/g	667.4 ± 530.1 %ID/g	0.90 ± 0.22 %ID/g	19.59 ± 5.26 %ID/g	3.13 ± 0.83 %ID/g	16.53 ± 2.22 %ID/g	1.71 ± 0.14 %ID/g	0.85 ± 0.04 %ID/g	0.33 ± 0.12 %ID/g	2.50 ± 0.6 %ID/g
